# Results: patent US20150125452A1, “COMBINATION TREATMENTS COMPRISING C-MET ANTAGONISTS AND B-RAF ANTAGONISTS” (GENENTECH, INC., priority 2011, published 2015)
# Tests used:
# [1] = tested on: kinase-addicted cancer cell lines; experiment: RTK ligand matrix screen, Syto 60 cell viability; format: cell-based, Human; details: six kinase addicted cell lines, six RTK ligands
# [2] = tested on: kinase-addicted cancer cell lines; experiment: RTK ligand matrix screen, Syto 60 cell viability; format: cell-based, Human; details: for effect of RTK ligand on conferring drug resistance to kinase inhibitors: 50 ng/mL RTK ligand, 72 h, 41 cell lines
# Experimental: (§1) Cell viability was assessed using the nucleic acid stain Syto 60 (Invitrogen). Cells (3000-5000 per well) were seeded into 96 well plates and allowed to adhere overnight. The next day, cells were treated with (or without) 50 ng/mL RTK ligand and concomitantly exposed to an increasing concentration range of the relevant kinase inhibitor. Following 72 hours drug exposure, cells were fixed in 4% formaldehyde, stained with Syto 60 and cell number was assessed using an Odyssey scanner (Li-Cor). Cell viability was calculated by dividing the fluorescence obtained from the drug-treated cells by the fluorescence obtained from the control (no drug) treated cells.
# Cell lines. Human cancer cell lines were obtained and tested for sensitivity using an automated platform as previously described (Johannessen, C. M. et al. COT drives resistance to RAF inhibition through MAP kinase pathway reactivation. Nature 468, 968-972, doi:10.1038/nature09627 (2010)). Cell lines were maintained at 37° C. in a humidified atmosphere at 5% CO2 and grown in RPMI 1640 or DMEM/F12 growth media (GIBCO) supplemented with 10% fetal bovine serum (GIBCO), 50 units/mL penicillin and 50 μg/mL streptomycin (GIBCO).
# Using 41 different human tumor-derived cell lines with previously defined kinase dependency^7-9, we undertook a “matrix analysis” to examine the effects of 6 different RTK ligands (HGF, EGF, FGF, PDGF, NRG1, IGF)—known to be widely expressed in cancer cells and tumor stroma^10—on drug response. Specifically, we quantified the effect of exposing these cancer cell lines (e.g., AU565 (HER2 amp)) to each ligand on the IC50 for a kinase inhibitor (e.g., lapatinib) that otherwise potently suppresses their growth within 72 hours (FIG. 1A). Nearly all of the kinase-dependent cancer cell lines tested, which included cells derived from multiple tissue types and with distinct kinase dependencies (EGFR, HER2, BRAF, MET, ALK, PDGFR, and FGFR), could be rescued from drug-induced growth inhibition by one or more RTK ligands, highlighting the potentially broad contribution of these ligands to the response to selective kinase inhibitors in kinase-addicted tumor cells (FIG. 1B).
# [3] = tested on: HER2-amplified breast cancer cell lines; experiment: Syto 60 cell viability, ligand rescue from lapatinib; format: cell-based, Human; details: 50 ng/mL ligand, 72 h
# Experimental: as §1
# The ability of HGF to rescue 3 of 9 tested HER2-amplified breast cancer cell lines from growth inhibition by the HER2 kinase inhibitor lapatinib was also unexpected (FIG. 3A). These 3 cell lines all express MET, and expression was well correlated with the ability of HGF to attenuate lapatinib response (FIG. 3B).
# [4] = tested on: AKT and ERK phosphorylation; experiment: Immunoblots of survival pathway re-activation; format: cell-based, Human; details: for PI3K/MAPK pathway re-activation by RTK ligand in presence of kinase inhibitor: 50 ng/mL ligand, kinase inhibitor 1 μM, 2 h
# Experimental: FIGS. 2A-2C: pro-survival pathway re-activation correlated with RTK ligand rescue. FIG. 2A, Immunoblots showing the effect of acute RTK ligand treatment (50 ng/mL) on AKT and ERK phosphorylation following kinase inhibition (1 μM, 2 h). RTK ligand rescue is indicated, grey squares indicates complete rescue and black squares indicates partial rescue as determined by the initial screen (FIG. 1B). […] Cells were co-treated with 50 ng/mL RTK ligand in the presence of the appropriate secondary kinase inhibitor (0.5 μM) as indicated. […] Error bars represent mean+/−s.e.m. FIG. 2C, Immunoblots showing the effect of acute kinase inhibition (1 μM) in the presence and absence of RTK ligands (50 ng/mL, 2 h) on AKT and ERK phosphorylation. Cells were co-treated with secondary kinase inhibitor (0.5 μM) as appropriate.
# Cell lysates were harvested using Nonidet-P40 lysis buffer, supplemented with Halt protease and phosphatase inhibitor cocktail (Thermo Scientific) and immunodetection of proteins was carried out using standard protocols. The phospho-HER2 (Y1248; #2247), HER2 (#2242), phospho-HER3 (Y1289; #4791), phospho-MET (Y1234/5; #3126), PDGFRα (#5241), phospho-FRS2α (Y196; #3864), IGF-1Rβ (#3027), phospho-ALK (Y1604; #3341), AKT (#9272), phospho-ERK (T202/Y204; #9101), ERK (#9102), GAPDH (#2118) and β-Tubulin (#2146) antibodies were purchased from Cell Signaling Technologies. Antibodies to HER3 (SC-285), MET (SC-10), phospho-PDGFRα (SC-12911), FRS2α (SC-8318), FGFR1 (SC-7945), FGFR2 (SC-122), FGFR3 (SC-13121) and ALK (SC-25447) were purchased from Santa Cruz Biotechnologies. Phospho-AKT (S473; #44-621G) antibody was purchased from Invitrogen. Phospho-EGFR (Y1068; ab5644) antibody was purchased from Abeam. EGFR (#610017) antibody was purchased from BD Biosciences. PARP (#14-6666-92) antibody was purchased from eBioscience. Densitometry was carried out using ImageJ software.
# [5] = tested on: AU565 HER2 amplified breast cancer cells; experiment: Syto 60 viability and long-term staining with lapatinib and ligands; format: cell-based, Human; details: lapatinib 1 μM, 10 ng/mL NRG1, FGF or combination, 72 h
# Experimental: FIGS. 3A-3G: HGF promoted lapatinib resistance in HER2 amplified cell lines. […] HGF rescue is indicated, black squares indicates partial rescue as determined by the initial screen (FIG. 1B). […] Cells were treated every three days for the indicated times. […] FIG. 3D, Immunoblots showing the re-activation of pAKT and pERK in two MET positive (AU565, HCC1954) and one MET negative (BT474) HER2 amplified cell lines. […] FIG. 3E, Representative slides showing MET expression in HER2 positive (3+) breast cancer tissues. FIG. 3F, selection of higher MET expressing AU565 cells following 3× treatments with lapatinib (1 μM) and HGF (50 ng/mL). FIG. 3G. […] Cells were treated twice weekly for the indicated times.
# AU565 sells were co-treated with lapatinib (1 μM) in combination with 10 ng/mL NRG1 or FGF. […] Cells were treated with the appropriate kinase inhibitors in the presence of HGF (50 ng/mL). Cells were then treated with either 100 nM PI3K inhibitor (BEZ235) or MAPK inhibitor (AZD6244). Error bars represent mean+/−s.e.m.
# as §1
# [6] = tested on: BRAF mutant melanoma cell lines; experiment: Syto 60 cell viability, HGF rescue from PLX[…]; format: cell-based, Human
# Experimental: Cells were treated twice weekly for the indicated times. […] Error bars represent mean+/−s.e.m.
# as §1, with “Following 72 hours drug exposure, cells were fixed in 4% formaldehyde, stained with Syto 60 and cell number was assessed using an Odyssey scanner (Li-Cor).” left out
# 928MEL xenografts = experiment: Xenograft tumour growth assay; format: in vivo, CRL C.B-17 SCID.bg mice; details: for tumor regression, B-raf antagonist plus c-met antagonist versus PLX[…] alone: PLX[…]-treated xenografts
# Experimental: […] Differences between the 2 groups were determined using two-way ANOVA (*=0.0008).
# All procedures conformed to the guidelines and principles set by the Institutional Animal care and Use Committee of Genentech and were carried out in an AAALAC (Association for the Assessment and Accreditation of Laboratory Animal care) accredited facility. […] Tumor volumes were calculated using the formula (Lx(W×W))/2. A partial response (PR) in this example was defined as a reduction in tumour volume greater than 50% but less than 100%. A complete response (CR) in this example was defined as 100% reduction in tumour volume. […]
# [7] = tested on: BRAF mutant metastatic melanoma patients; experiment: BRIM2 clinical trial, outcome by plasma HGF level; format: in vivo, human; details: PLX[…]-treated patients
# Experimental: Plasma was obtained from metastatic melanoma patients pre-dose cycle one and the concentration of HGF in patient-derived plasma were quantitatively measured using a sandwich enzyme-linked immunosorbent assay (ELISA). Wells of NUNC MaxiSorp microtiter plates were coated (ON, 4° C.) with 0.5 μg/mL of affinity-purified Goat antihuman hepatocyte growth factor polyclonal antibody in 100 μL of coating buffer (0.05M sodium carbonate buffer, pH 9.6) and were then blocked with 0.5% bovine serum albumin (BSA) in assay buffer (PBS, 0.5% BSA, 0.05% P 20, 0.25% CHAPS, 0.35M NaCl, 5 mM EDTA, 10 ppm Proclin300, pH 7.4) for 1 hour at room temperature. Diluted human hepatocyte growth factor controls and plasma samples (100 μL) in assay buffer were loaded in duplicates and incubated for 2 hours at room temperature, followed by the addition of 100 μL of affinity-purified goat antihuman hepatocyte growth factor biotin (150 ng/mL) for an additional 1 hour at room temperature. Avidin-conjugated horseradish peroxidase (40 ng/mL) in PBS, 0.5% BSA, 0.05% P 20, 10 ppm Proclin300, pH 7.4, was added (1 hour, room temperature), and the reaction was visualized by the addition of 100 μL of chromogenic substrate (TMB) for 15 minutes. The reaction was stopped with 1M phosphoric acid and absorbance at 450 nm was measured with reduction at 630 nm with an ELISA plate reader. Plates were washed 3 times with washing buffer (0.05% Tween 20/PBS) after each step. As a reference for quantification, a standard curve was established by a serial dilution of human hepatocyte growth factor (CritRS CR67; 2000-15.625 pg/mL).
# HGF levels were log-transformed, and the Kolmogorov-Smirnoff test was used to test the resulting distribution for departure from the Gaussian distribution. The Cox-proportional model was used to test the log-transformed HGF levels for association with the progression free survival (PFS) and overall survival (OS). Association between the response and HGF levels was tested using the Wilcoxon rank-sum test. Kaplan-Meier (KM) curves were used to show display the relationship between the HGF levels and the time-to-event outcomes (PFS and OS). […] The cox-proportional model of the outcome as the function of the continuous HGF level was used to calculate the hazard ratio and corresponding p-value.
# [8] = tested on: HCC1954 HER2 amplified breast cancer cells; details: lapatinib 5 μM, crizotinib 1 μM, twice weekly
# Experimental: Cells were treated twice weekly for the indicated times.
# The effects of MET kinase inhibition to delay lapatinib resistance in HCC 1954 cells were examined.
# [9] = 10 mice per group, 4 weeks, PR = tumour volume reduction >50% but <100%
compound,measurement,setting,value
N.N.[Cl][Pt][Cl] [cisplatin],RTK ligand rescue from growth suppressive effects of cisplatin,[1],none of the tested RTK ligands could rescue cells
"NRG1: HER3 ligand, rhNRG1-β1 purchased from R and D Systems",effect of RTK ligand on conferring drug resistance to kinase inhibitors,[2],most broadly active ligands
same,rescue despite activation of receptor and a downstream survival effector,"[2]; H2228 and H358 cells with HGF, COLO-201 cells with NRG1",not sufficient to rescue cells from kinase inhibition
same,number of HER2-amplified breast cancer cell lines rescued from lapatinib,[3],8 of the 9
same,PI3K/MAPK pathway re-activation by RTK ligand in presence of kinase inhibitor,[4],only re-activated the PI3K
same,rescue from kinase inhibition by activating both PI3K and MAPK pathways,[5],additive
PDGF: recombinant human PDGF-AB purchased from Peprotech,effect of RTK ligand on conferring drug resistance to kinase inhibitors,[2],relatively little effect
PLX4032,correlation of MET expression with PLX[…] sensitivity,[6]; HGF-rescuable cell lines,inversely correlated
same,"partial responses, PLX[…] alone",928MEL xenografts; [9],1
same,"tumor regression, B-raf antagonist plus c-met antagonist versus PLX[…] alone",928MEL xenografts,statistically significant improvement in tumor regression
same,"hazard ratio, overall survival with increased HGF","[7]; Cox-proportional model, p<0.001",1.8
same,"hazard ratio, progression free survival with increased HGF","[7]; Cox-proportional model, p<0.005",1.42
same,"overall survival, HGF above median versus below median","[7]; median plasma HGF 334 pg/mL, p<0.001",substantially reduced
same,"progression-free survival, HGF above median versus below median","[7]; median plasma HGF 334 pg/mL, p=0.005",substantially reduced
"Cn1c(=O)n(-c2ccc(C(C)(C)C#N)cc2)c2c3cc(-c4cnc5ccccc5c4)ccc3ncc21 [BEZ235, reference compound]",reversal of HGF-induced rescue by PI3K versus MAPK pathway inhibition,"[2]; 100 nM BEZ235 or AZD6244, HGF 50 ng/mL, with kinase inhibitor",more potent at reversing ligand—induced rescue
FGF: recombinant human FGF-basic purchased from Peprotech,effect of RTK ligand on conferring drug resistance to kinase inhibitors,[2],most broadly active ligands
same,PI3K/MAPK pathway re-activation by RTK ligand in presence of kinase inhibitor,[4],only re-activated the MAPK pathway
same,rescue from kinase inhibition by activating both PI3K and MAPK pathways,[5],additive
"CCN1CC[C@@H](Nc2n[nH]c3nccc(Oc4ccc(NC(=O)c5ccnn(-c6ccc(F)cc6)c5=O)cc4F)c23)[C@@H](F)C1 [GDC-0712, N-(4-(3-((3S,4R)-1-ethyl-3-fluoropiperidine-4-ylamino)-1H-pyrazolo[3,4-b]pyridin-4-yloxy)-3-fluorophenyl)-2-(4-fluorophenyl)-3-oxo-2,3-dihydropyridazine-4-carboxamide]","partial responses, PLX[…] with MET kinase inhibition",928MEL xenografts; [9],8
same,"tumor regression, B-raf antagonist plus c-met antagonist versus PLX[…] alone",928MEL xenografts,greater effect on tumor regression
"C[C@@H](Oc1cc(-c2cnn(C3CCNCC3)c2)cnc1N)c1c(Cl)ccc(F)c1Cl [crizotinib, 3-[(1R)-1-(2,6-dichloro-3-fluorophenyl)ethoxy]-5-(1-piperidin-4-ylpyrazol-4-yl)pyridin-2-amine]",reversal of HGF survival rescue by MET inhibition,"[6]; PLX[…], HGF 50 ng/mL, crizotinib 0.5 μM, 72 h",survival rescue by HGF was reversed
same,emergence of lapatinib resistance under MET kinase inhibition,[8],delayed the emergence of lapatinib resistance
IGF: recombinant human IGF-1 purchased from Peprotech,effect of RTK ligand on conferring drug resistance to kinase inhibitors,[2],relatively little effect
same,PI3K/MAPK pathway re-activation by RTK ligand in presence of kinase inhibitor,[4],only re-activated the PI3K
same,downstream signalling after receptor activation in non-rescued cells,"[4]; COLO-201 and BT474 cell lines, IGF",downstream signalling via PI3K or MAPK was not observed
